From US9394338B2, “Glutathione analogs and uses thereof” (REGENTS OF THE UNIVERSITY OF MINNESOTA, priority 2011, dated 2016) come the findings set out here.

Usually viability stands for the share of living cells, or the viability signal relative to a control.

The test system of one series is SH-SY-5Y cells. Description: cells. The series is classed as cell-based. The note with it: for % Inhibition of Cell Growth with Aβ1-42 / % Inhibition of Cell Growth without Aβ1-42: compound 1 mM 24 h; for % Inhibition of Cell Growth with Aβ1-42: then 20 μM Aβ1-42 24 h. As for the experimental part:
(§1) Cytotoxicity Studies: Protection against β-amyloid 1-42 cytotoxicity in SH-SY-5Y cells was measured by standard MTT assays. SH-SY-5Y cells were seeded in 96-well plates at the density of 30,000 cells/well. After overnight incubation, the cells were exposed to GSH or Ψ-GSH at a concentration of 1 mM for 24 h at 37° C. After 24 h of incubation, the drug-containing medium was replaced with media containing 20 μM β-amyloid 1-42 peptide and the incubation was allowed to continue for additional 24 hours after the addition of the drugs. At the end of the incubation, 20 μL of MTT stock solution (5 mg/mL) was added to each well and incubated for 3 h at 37° C. The MTT reaction medium was discarded and the purple-blue MTT formazan crystals were dissolved by the addition of 100 μL of 0.1 N HCl in isopropanol. The optical density (OD), a reflection mitochondrial function of the viable cells, was read directly with a microplate reader (BioTek SynergyHT, VT, USA) at 580 nm and a reference wavelength of 680 nm. Concentration response graphs were generated for each drug using GraphPad Prism software (GraphPad Software, Inc., San Diego, Calif., USA). Results are expressed as mean percent inhibition of β-amyloid toxicity with the standard error of the mean. In another set of experiments, cells were preincubated with a glyoxalase I inhibitor, S-(p-bromobenzylglutathione) (1 mM) for 24 hours before addition of βamyloid1-42 peptide (20 μM).
as §1, with “Protection” for “Cytotoxicity Studies: Protection”, “against β-amyloid^1-42” for “against β-amyloid 1-42”, “cells/well. […]” for “cells/well. After overnight incubation, the cells were exposed to GSH or Ψ-GSH at a concentration of 1 mM for 24 h at 37° C.”, “μM β-amyloid^1-42” for “μM β-amyloid 1-42”, “20 μl,” for “20 μL”, “mean.” for “mean. In another set of experiments, cells were preincubated with a glyoxalase I inhibitor, S-(p-bromobenzylglutathione) (1 mM) for 24 hours before addition of βamyloid1-42 peptide (20 μM).”

In a further series the test system is Swiss Webster Mice. Description: ACP (acetaminophen) overdose rescue and effects on normal liver. The series is classed as in vivo. As to conditions: 370 mg/kg ACP + NAC 7.35 mmol/kg. As for the experimental part: 36-Male Swiss Webster Mice (HSD) were fasted over-night and then brought to the lab at 8:00 am the following day and weighed. Food was kept out of the cages until after the final drug injection. Mice were divided into treatment groups as below in Table 2.
Thirty minutes post overdose with 370 mg/kg ACP, the following were evaluated for the groups in Table 2:
N-acetylcysteine (NAC) at 7.35 mmol/kg;
Ψ-GSH at three different doses, 3.67, 2.45 and 1.22 mmol/kg; and
examine effects of Ψ-GSH on normal liver at rescue doses.

The target of a further series is T1, yeast glyoxalase I (Saccharomyces cerevisiae, UniProt P50107).
T1 construct: purchased Sigma
T1 sequence (P50107 1-326): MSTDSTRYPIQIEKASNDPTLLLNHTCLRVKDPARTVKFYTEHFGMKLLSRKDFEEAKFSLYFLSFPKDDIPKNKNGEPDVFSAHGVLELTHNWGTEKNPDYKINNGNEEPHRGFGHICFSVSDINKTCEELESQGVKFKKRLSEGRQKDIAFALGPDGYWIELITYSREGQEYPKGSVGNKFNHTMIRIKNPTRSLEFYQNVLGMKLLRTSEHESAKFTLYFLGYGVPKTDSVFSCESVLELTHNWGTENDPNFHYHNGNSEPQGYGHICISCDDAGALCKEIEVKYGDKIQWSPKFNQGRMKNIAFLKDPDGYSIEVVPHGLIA
Briefly: Glyoxalase I enzyme kinetics assay. The format is biochemical. As to conditions: yeast Glx-I, MG, 30° C., phosphate buffer pH 6.6. As to the method: Glyoxalase I Enzyme Kinetics Assay. The glutathione analog, Ψ-GSH and asparthione were examined for their ability to act as substrates for the yeast glyoxalase I mediated […] of MG. The commercial 40% methylglyoxal solution was distilled to remove polymerization products. Enzyme assays were performed (30° C., 0.05 M phosphate buffer (pH 6.6)) using a thermostated Beckman DU® 7400 spectrophotometer. Fresh solutions of GSH, Ψ-GSH and asparthione were prepared on the day of the assays with distilled, deionized water. In each assay, the cell contained a total volume of 3.0 mL which was no more than 6.0 mM with respect to methylglyoxal and 1.3 mM with respect to GSH or its analogs. […] Data were analyzed utilizing an Enzyme kinetics module of Sigmaplot 9.0 from Systat Software Inc.

Turning to `N[C@@H](CCC(=O)N[C@@H](CSCc1ccc(Br)cc1)C(=O)NCC(=O)O)C(=O)O` [GSBB, S-p-bromobenzylglutathione, reference compound], the cell death in the series with SH-SY-5Y cells (1 mM compound alone, SH-SY-5Y) amounted to 10%. Also, the viability at 1000 µM in the series on SH-SY-5Y cells (Homo sapiens, SH-SY5Y, Aβ in combination with 1 mM GSBB, read-out: Percentage cell viability) stood at 23.6%.
Regarding `CC(=O)N[C@@H](CS)C(=O)O` [NAC, N-acetylcysteine, reference compound], the “death of animals in the group” value in the series on Swiss Webster Mice came out at 50%.
As for `N[C@@H](CC(=O)N[C@@H](CS)C(=O)NCC(=O)O)C(=O)O` [asparthione], the “slope for initial velocity vs. substrate concentration” value at yeast glyoxalase I amounted to 0.0132±0.0136.
“Boc-γ-Gla(OtBu)-Cys-Gly-OtBu [Compound VI]”: in the series with SH-SY-5Y cells (SH-SY-5Y), the “% Inhibition of Cell Growth with Aβ1-42” value was determined as 18% and the “% Inhibition of Cell Growth without Aβ1-42” value stood at 2%.
For the compound Boc-γ-Gla-Cys-Gly-OH [Compound V], in the series on SH-SY-5Y cells (SH-SY-5Y), the “% Inhibition of Cell Growth with Aβ1-42” value turned out to be 10% and the “% Inhibition of Cell Growth without Aβ1-42” value was 1%.
“Boc-γ-Gla[-Cys(StBu)-Gly-OtBu]-OtBu [Compound 7]”: in the series with SH-SY-5Y cells (SH-SY-5Y), the “% Inhibition of Cell Growth with Aβ1-42” value was 41% and the “% Inhibition of Cell Growth without Aβ1-42” value came out at 0%.
On the same counts, the results for “HCl•γ-Gla[-Cys-Gly-OtBu]-OtBu [Compound VIII]” are 50% and 1%.
As for “HCl•γ-Gla[Cys-Gly-OCyP]-OcyP [Compound X]”, in the series on SH-SY-5Y cells (SH-SY-5Y), the “% Inhibition of Cell Growth with Aβ1-42” value worked out at 27% and the “% Inhibition of Cell Growth without Aβ1-42” value is 0%.
In the case of “HCl•γ-Gla[Cys-Gly-OiPr]-OiPr [Compound IX]”, in the series on SH-SY-5Y cells (SH-SY-5Y), the “% Inhibition of Cell Growth with Aβ1-42” value came out at 31% and the “% Inhibition of Cell Growth without Aβ1-42” value is given as 0%.
For the compound N-acetyl-γ-Gla-Cys-Gly-OH [IV], in the series with SH-SY-5Y cells (SH-SY-5Y), the “% Inhibition of Cell Growth with Aβ1-42” value is 3% and the “% Inhibition of Cell Growth without Aβ1-42” value is listed as 0%.
Consider [γ-Gla-Cys-Gly-OH]2 [Compound XI], for which, in the series with SH-SY-5Y cells (SH-SY-5Y), the “% Inhibition of Cell Growth with Aβ1-42” value came out at 24% and the “% Inhibition of Cell Growth without Aβ1-42” value came to 1%.
For γ-Glo-Cys-Gly-OH [II], in the series with SH-SY-5Y cells (SH-SY-5Y), the “% Inhibition of Cell Growth with Aβ1-42” value worked out at 56% and the “% Inhibition of Cell Growth without Aβ1-42” value is on record as 1%.
On the same counts, the results for γ-Glt-Cys-Gly-OH [III] are 55% and 2%.
